{
  "source": "paper PMC3066655",
  "about": "(Journal of medicinal chemistry, 2011)",
  "key": {"σ1 receptor": {"target": "σ1 receptor (Cavia porcellus, UniProt Q60492)", "sequence (Q60492 whole entry)": "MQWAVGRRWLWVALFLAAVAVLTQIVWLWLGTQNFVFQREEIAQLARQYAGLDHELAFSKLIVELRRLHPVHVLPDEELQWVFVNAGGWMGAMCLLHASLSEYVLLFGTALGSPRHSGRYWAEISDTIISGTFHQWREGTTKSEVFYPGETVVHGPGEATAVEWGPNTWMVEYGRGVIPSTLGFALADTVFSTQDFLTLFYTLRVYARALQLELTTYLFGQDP", "experiment": "σ1 receptor binding assay", "design": "species or system guinea pig", "conditions": "ratio of D3 and σ1 Ki values"}, "σ2 receptor": {"target": "T1, σ2 receptor (Rattus norvegicus, UniProt Q5U3Y7)", "T1 sequence (Q5U3Y7 1-176)": "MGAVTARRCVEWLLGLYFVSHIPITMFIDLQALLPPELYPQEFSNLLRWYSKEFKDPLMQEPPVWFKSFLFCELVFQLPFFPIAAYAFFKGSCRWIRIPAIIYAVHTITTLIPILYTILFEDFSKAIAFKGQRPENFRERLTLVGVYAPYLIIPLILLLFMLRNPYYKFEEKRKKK", "experiment": "σ2 receptor binding assay, [3H]-DTG, liver membrane homogenates", "conditions": "for D3/ σ2 ratio: ratio of D3 and σ2 Ki values"}},
  "data": [
    {"smiles": "COc1ccccc1N1CCN(CCCCNC(=O)c2ccc(N(C)C)cc2)CC1", "note": "[Compound 1, 4-(Dimethylamino)-N-[4-(4-(2-methoxyphenyl)piperazin-1-yl)butyl]benzamide, reference compound]", "values": [
      {"measurement": "D3/ σ1 Ratio", "setting": "σ1 receptor", "value": "1,573"},
      {"measurement": "Ki", "setting": "σ2 receptor", "value": 1570, "unit": "nM"},
      {"measurement": "D3/ σ2 ratio", "setting": "σ2 receptor", "value": "1,970"}
    ]},
    {"smiles": "COc1ccccc1N1CCN(CCCCNC(=O)c2ccc(CCF)cc2)CC1", "note": "[Compound 2, reference compound]", "values": [
      {"measurement": "Ki", "setting": "σ2 receptor", "value": 2210, "unit": "nM"}
    ]},
    {"smiles": "COc1ccccc1N1CCN(CCCCNC(=O)c2ccc(OCCF)cc2)CC1", "note": "[Compound 18a, 4-(2-Fluoroethoxy)-N-(4-(4-(2-methoxyphenyl)-piperazin-1-yl)-butyl)benzamide]", "values": [
      {"measurement": "Ki", "setting": "σ2 receptor", "value": "660 ± 36", "unit": "nM"}
    ]},
    {"smiles": "COc1ccccc1N1CCN(CCCCNC(=O)c2ccc(OCCOCCOCCF)cc2)CC1.O=C(O)C(=O)O", "note": "[Compound 18c, 4-(2-(2-(2-Fluoroethoxy)ethoxy)ethoxy)-N-(4-(4-(2-methoxyphenyl)piperazin-1-l)butyl)benzamide]", "values": [
      {"measurement": "D3/ σ1 Ratio", "setting": "σ1 receptor", "value": "1,159"},
      {"measurement": "Ki", "setting": "σ2 receptor", "value": 1120, "unit": "nM"}
    ]},
    {"smiles": "O=C(NC/C=C/CN1CCN(c2ccccc2OCCF)CC1)c1ccc(CCF)cc1.O=C(O)C(=O)O", "note": "[Compound 21b, 4-(2-Fluoroethyl)-N-(4-(4-(2-(2-Fluoroethoxy)phenyl)piperazin-1-yl)-trans-butyl-2-enyl)benzamide]", "values": [
      {"measurement": "D3/ σ1 Ratio", "setting": "σ1 receptor", "value": "6,541"},
      {"measurement": "Ki", "setting": "σ2 receptor", "value": 2020, "unit": "nM"},
      {"measurement": "D3/ σ2 ratio", "setting": "σ2 receptor", "value": "1,839"}
    ]},
    {"smiles": "O=C(NC/C=C/CN1CCN(c2ccccc2OCCF)CC1)c1ccc(-c2ccsc2)cc1.O=C(O)C(=O)O", "note": "[Compound 21e, 4-(Thiophen-3-yl)-N-(4-(4-(2-(2-fluoroethoxy)phenyl)piperazin-1-yl)-trans-but-2-enyl)benzamide]", "values": [
      {"measurement": "D3/ σ1 Ratio", "setting": "σ1 receptor", "value": "7,076"},
      {"measurement": "Ki", "setting": "σ2 receptor", "value": 1320, "unit": "nM"},
      {"measurement": "D3/ σ2 ratio", "setting": "σ2 receptor", "value": "1,200"}
    ]}
  ]
}
